{
  "source": "paper PMC7316778",
  "about": "(Nature Communications, 2020)",
  "key": {"PDK1": {"target": "T1, PDK1 (Homo sapiens, UniProt O15530)", "T1 sequence (O15530 1-556)": "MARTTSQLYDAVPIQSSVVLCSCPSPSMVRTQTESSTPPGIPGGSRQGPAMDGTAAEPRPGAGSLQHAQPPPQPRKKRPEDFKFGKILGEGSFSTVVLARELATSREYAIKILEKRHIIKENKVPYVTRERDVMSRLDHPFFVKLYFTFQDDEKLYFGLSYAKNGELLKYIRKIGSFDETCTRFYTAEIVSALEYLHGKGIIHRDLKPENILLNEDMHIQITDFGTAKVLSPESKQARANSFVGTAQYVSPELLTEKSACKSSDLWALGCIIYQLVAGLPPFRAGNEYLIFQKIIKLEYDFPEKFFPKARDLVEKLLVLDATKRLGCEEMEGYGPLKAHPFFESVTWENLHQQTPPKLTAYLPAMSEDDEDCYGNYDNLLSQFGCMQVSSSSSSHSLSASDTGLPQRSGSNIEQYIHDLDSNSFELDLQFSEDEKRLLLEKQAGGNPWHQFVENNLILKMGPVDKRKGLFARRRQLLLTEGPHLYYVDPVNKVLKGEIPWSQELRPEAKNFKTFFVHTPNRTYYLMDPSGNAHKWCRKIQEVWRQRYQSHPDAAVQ", "experiment": "SelectScreen kinase assay"}, "WT HL-60 cells": {"test_system": "WT HL-60 cells", "experiment": "CD11b surface expression, PMA-induced macrophage differentiation", "type": "cell-based, human", "conditions": "Figure 6d"}, "MAPK12 (p38 gamma)": {"target": "T2, MAPK12 (p38 gamma) (Homo sapiens, UniProt P53778)", "T2 sequence (P53778 1-367)": "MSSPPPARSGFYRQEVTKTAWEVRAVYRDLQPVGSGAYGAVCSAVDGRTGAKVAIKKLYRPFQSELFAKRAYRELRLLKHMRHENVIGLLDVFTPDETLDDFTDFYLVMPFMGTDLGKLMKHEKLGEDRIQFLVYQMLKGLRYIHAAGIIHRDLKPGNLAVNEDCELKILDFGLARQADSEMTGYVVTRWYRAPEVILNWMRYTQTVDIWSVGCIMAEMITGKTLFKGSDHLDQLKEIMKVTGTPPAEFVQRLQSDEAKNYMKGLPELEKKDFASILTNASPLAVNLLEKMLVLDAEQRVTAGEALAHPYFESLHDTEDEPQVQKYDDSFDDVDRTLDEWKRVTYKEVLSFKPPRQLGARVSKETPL", "experiment": "SelectScreen kinase assay"}, "ULK3": {"target": "T3, ULK3 (Homo sapiens, UniProt Q6PHR2)", "T3 sequence (Q6PHR2 1-472)": "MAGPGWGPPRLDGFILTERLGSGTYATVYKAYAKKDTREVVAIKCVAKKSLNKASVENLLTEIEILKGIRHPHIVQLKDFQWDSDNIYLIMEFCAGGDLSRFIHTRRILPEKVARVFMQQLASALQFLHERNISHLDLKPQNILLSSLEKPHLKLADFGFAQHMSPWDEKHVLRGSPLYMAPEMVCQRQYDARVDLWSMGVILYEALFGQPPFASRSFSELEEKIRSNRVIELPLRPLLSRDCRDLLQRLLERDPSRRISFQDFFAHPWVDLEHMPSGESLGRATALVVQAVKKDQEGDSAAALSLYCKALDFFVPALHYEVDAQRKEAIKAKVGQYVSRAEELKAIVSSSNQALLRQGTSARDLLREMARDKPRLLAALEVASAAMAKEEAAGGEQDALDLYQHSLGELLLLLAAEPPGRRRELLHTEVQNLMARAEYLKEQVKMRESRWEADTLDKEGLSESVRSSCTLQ", "experiment": "SelectScreen kinase assay"}, "EPHB2": {"target": "T4, EPHB2 (Homo sapiens, UniProt P29323)", "T4 sequence (P29323 19-1055)": "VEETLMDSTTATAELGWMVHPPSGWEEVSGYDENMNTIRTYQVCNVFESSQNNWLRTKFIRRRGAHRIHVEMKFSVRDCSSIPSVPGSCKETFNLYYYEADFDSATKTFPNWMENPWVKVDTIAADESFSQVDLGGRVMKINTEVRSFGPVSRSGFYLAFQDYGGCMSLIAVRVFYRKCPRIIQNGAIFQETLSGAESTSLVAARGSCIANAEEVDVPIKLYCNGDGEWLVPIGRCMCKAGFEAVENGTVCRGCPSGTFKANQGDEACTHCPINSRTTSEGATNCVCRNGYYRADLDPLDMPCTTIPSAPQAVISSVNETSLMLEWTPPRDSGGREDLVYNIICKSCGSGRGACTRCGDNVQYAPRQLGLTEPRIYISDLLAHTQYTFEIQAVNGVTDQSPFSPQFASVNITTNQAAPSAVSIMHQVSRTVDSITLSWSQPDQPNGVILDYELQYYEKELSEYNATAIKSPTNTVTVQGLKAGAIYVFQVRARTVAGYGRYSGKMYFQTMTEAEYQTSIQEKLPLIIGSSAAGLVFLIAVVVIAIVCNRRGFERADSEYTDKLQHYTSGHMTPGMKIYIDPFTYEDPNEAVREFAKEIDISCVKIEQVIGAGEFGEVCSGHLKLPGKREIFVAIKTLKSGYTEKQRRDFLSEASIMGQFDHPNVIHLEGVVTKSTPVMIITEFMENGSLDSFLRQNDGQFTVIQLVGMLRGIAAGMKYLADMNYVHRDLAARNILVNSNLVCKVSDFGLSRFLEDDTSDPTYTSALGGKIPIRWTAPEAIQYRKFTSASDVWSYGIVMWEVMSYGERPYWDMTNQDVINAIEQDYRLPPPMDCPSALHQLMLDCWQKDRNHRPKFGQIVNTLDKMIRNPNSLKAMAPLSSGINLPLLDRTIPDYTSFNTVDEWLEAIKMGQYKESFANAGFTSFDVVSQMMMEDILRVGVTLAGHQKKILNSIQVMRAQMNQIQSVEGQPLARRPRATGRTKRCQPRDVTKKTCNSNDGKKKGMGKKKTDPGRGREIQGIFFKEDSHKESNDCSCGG", "experiment": "SelectScreen kinase assay", "conditions": "for Inhibition at 1 µM (%): EPHB2, ZLYTE, ATP Km app"}, "PRKACA (PKA)": {"target": "PRKACA (PKA) (Homo sapiens, UniProt P17612)", "experiment": "SelectScreen kinase assay"}, "[1]": {"conditions": "1 h, 1 μM WEL028, 1 h preincubation"}},
  "note": "“And” between values parts separate entries of the source, which are not always exact repeats. Identical values can stand only once. Like-named read-outs stand apart in the source and are kept apart here.",
  "data": [
    {"compound": "C#CCOc1ccc(Nc2ncc(Cl)c(Nc3ccccc3NC(=O)C=C)n2)c(OC)c1", "note": "[Compound 6]", "values": [
      {"measurement": "inhibition at 1 µM", "setting": "PDK1; [1]", "value": 36, "unit": "%"},
      {"measurement": "Inhibition at 1 µM (%)", "setting": "PDK1; PDK1, 1 µM, ZLYTE, ATP 100, listed as WEL028, 1 µM", "value": 35, "unit": "%"},
      {"measurement": "inhibition at 1 µM", "setting": "PDK1; read-out: Inhibition at 1 µM (%), PDK1, 1 µM, ZLYTE, ATP 100", "value": 36, "unit": "%"},
      {"measurement": "CD11b-positive cells (%)", "setting": "WT HL-60 cells; WEL028 100 nM", "value": "79.481% and 79.680% and 76.989%"},
      {"measurement": "CD11b-positive cells (%)", "setting": "WT HL-60 cells; WEL028 1 µM", "value": "1.972% and 1.548% and 2.205%"},
      {"measurement": "inhibition at 1 µM", "setting": "MAPK12 (p38 gamma); [1]", "value": 10, "unit": "%"},
      {"measurement": "Inhibition at 1 µM (%)", "setting": "MAPK12 (p38 gamma); MAPK12 (p38 gamma), 1 µM, ZLYTE, ATP Km app, listed as WEL028, 1 µM", "value": 7, "unit": "%"},
      {"measurement": "inhibition at 1 µM", "setting": "MAPK12 (p38 gamma); read-out: Inhibition at 1 µM (%), MAPK12 (p38 gamma), 1 µM, ZLYTE, ATP Km app", "value": 12, "unit": "%"},
      {"measurement": "Inhibition (%)", "setting": "ULK3; 1 μM WEL028, 1 h preincubation", "value": 26, "unit": "%"},
      {"measurement": "Inhibition at 1 µM (%)", "setting": "ULK3; 1 µM, LanthaScreen Binding, listed as WEL028, 1 µM", "value": 27, "unit": "%"},
      {"measurement": "inhibition at 1 µM", "setting": "ULK3; read-out: Inhibition at 1 µM (%), 1 µM, LanthaScreen Binding", "value": 25, "unit": "%"},
      {"measurement": "Inhibition (%)", "setting": "EPHB2; 1 μM WEL028, 1 h preincubation", "value": 4, "unit": "%"},
      {"measurement": "Inhibition at 1 µM (%)", "setting": "EPHB2", "value": 2, "unit": "%"},
      {"measurement": "Inhibition at 1 µM (%)", "setting": "EPHB2; listed as WEL028, 1 µM", "value": 5, "unit": "%"},
      {"measurement": "inhibition at 1 µM", "setting": "PRKACA (PKA); [1]", "value": 2, "unit": "%"},
      {"measurement": "Inhibition at 1 µM (%)", "setting": "PRKACA (PKA); PRKACA (PKA), 1 µM, ZLYTE, ATP Km app, listed as WEL028, 1 µM", "value": "4% and -1%"}
    ]}
  ]
}
